Assay results published in patent publication US12594276B2, “Inhibitors of human immunodeficiency virus replication” (ViiV Healthcare UK (No.5) Limited, priority 2024, dated 2026).

Experiments:
[1] = system: recombinant NL4-3 virus (nef section replaced with Renilla luciferase gene) in MT-2 cells; experiment: HIV cell culture assay (antiviral activity, luciferase readout); format: cell-based; details: Renilla, NL43, MT-2 cells infected for 4-5 days with recombinant NL4-3 Renilla luciferase virus
Summary of the method: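 The reporter virus was produced by transfecting 293T cells with the NL4-3 nef/Renilla luciferase proviral clone. MT-2 cells were infected for 4–5 days with serial compound dilutions present. Luciferase was read with a live-cell substrate, and EC50 came from the exponential median-effect equation.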

[2] = Compound cytotoxicity, XTT-based colorimetric assay; format: cell-based; details: human; uninfected MT2 cells, day 4, XTT; read-out: CC50
Summary of the method: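 Uninfected MT2 cells were treated with compound under the same protocol as the antiviral assay. Viability was read on day 4 with an XTT colorimetric assay, from which CC50 values were derived.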

Row | Structure (SMILES) | EC50 [1] [nM] | CC50 at 4 days [2] [nM]
1 | COCCCn1nc(NS(C)(=O)=O)c2c(Cl)ccc(-n3c([C@H](Cc4cc(F)cc(F)c4)NC(=O)Cn4nc(C(F)F)c5c4C(F)(F)[C@@H]4C[C@H]54)nc4nc(C5CCC(F)(F)CC5)cc(NCC5(F)CCOCC5)c4c3=O)c21 (atropisomer, axis not shown; (P)) [Example 484, N-[(1S)-1-[(3P)-3-[4-chloro-3-methanesulfonamido-1-(3-methoxypropyl)-1H-indazol-7-yl]-7-(4,4-difluorocyclohexyl)-5-{[(4-fluorooxan-4-yl)methyl]amino}-4-oxo-3H,4H-pyrido[2,3-d]pyrimidin-2-yl]-2-(3,5-difluorophenyl)ethyl]-2-[(2S,4R)-9-(difluoromethyl)-5,5-difluoro-7,8-diazatricyclo[4.3.0.0^2,^4]nona-1(6),8-dien-7-yl]acetamide] | 0.006 | > 20
2 | CC(C)S(=O)(=O)N1CCN(CCn2nc(NS(C)(=O)=O)c3c(Cl)ccc(-n4c([C@H](Cc5cc(F)cc(F)c5)NC(=O)Cn5nc(C(F)F)c6c5C(F)(F)[C@@H]5C[C@H]65)nc5nc(C6CCC(F)(F)CC6)ccc5c4=O)c32)CC1 (atropisomer, axis not shown; (P)) [Example 195, N-[(1S)-1-[(3P)-3-(4-chloro-3-methanesulfonamido-1-{2-[4-(propane-2-sulfonyl)piperazin-1-yl]ethyl}-1H-indazol-7-yl)-7-(4,4-difluorocyclohexyl)-4-oxo-3H,4H-pyrido[2,3-d]pyrimidin-2-yl]-2-(3,5-difluorophenyl)ethyl]-2-[(2S,4R)-9-(difluoromethyl)-5,5-difluoro-7,8-diazatricyclo[4.3.0.0^2,^4]nona-1(6),8-dien-7-yl]acetamide] | 0.037 | > 50
3 | Cc1cc(C2CCC(F)(F)CC2)nc2nc([C@H](Cc3cc(F)cc(F)c3)NC(=O)Cn3nc(C4CC4)c4c3C[C@@H]3C[C@H]43)n(-c3ccc(Cl)c4c(NS(C)(=O)=O)nn(CC(=O)N5CC(C)(C)OC(C)(C)C5)c34)c(=O)c12 (atropisomer, axis not shown; (P)) [Example 396, N-[(1S)-1-[(3P)-3-{4-chloro-3-methanesulfonamido-1-[2-oxo-2-(2,2,6,6-tetramethylmorpholin-4-yl)ethyl]-1H-indazol-7-yl}-7-(4,4-difluorocyclohexyl)-5-methyl-4-oxo-3H,4H-pyrido[2,3-d]pyrimidin-2-yl]-2-(3,5-difluorophenyl)ethyl]-2-[(2S,4S)-9-cyclopropyl-7,8-diazatricyclo[4.3.0.0^2,^4]nona-1(6),8-dien-7-yl]acetamide] | 0.02 | > 20
4 | C[C@@H]1CN(Cc2cc(C3CCC(F)(F)CC3)nc3nc([C@H](Cc4cc(F)cc(F)c4)NC(=O)Cn4nc(C(F)F)c5c4C(F)(F)[C@@H]4C[C@H]54)n(-c4ccc(Cl)c5c(NS(C)(=O)=O)nn(CCN6CC(C)(C)OC(C)(C)C6)c45)c(=O)c23)C[C@H](C)O1 (atropisomer, axis not shown; (P)) [Example 529, N-[(1S)-1-[(3P)-3-{4-chloro-3-methanesulfonamido-1-[2-(2,2,6,6-tetramethylmorpholin-4-yl)ethyl]-1H-indazol-7-yl}-7-(4,4-difluorocyclohexyl)-5-{[(2R,6S)-2,6-dimethylmorpholin-4-yl]methyl}-4-oxo-3H,4H-pyrido[2,3-d]pyrimidin-2-yl]-2-(3,5-difluorophenyl)ethyl]-2-[(2S,4R)-9-(difluoromethyl)-5,5-difluoro-7,8-diazatricyclo[4.3.0.0^2,4]nona-1(6),8-dien-7-yl]acetamide] | 0.017 | > 1000
5 | C[C@H](O)c1cc(C2CCC(F)(F)CC2)nc2nc([C@H](Cc3cc(F)cc(F)c3)NC(=O)Cn3nc(C(F)F)c4c3C(F)(F)[C@@H]3C[C@H]43)n(-c3ccc(Cl)c4c(NS(C)(=O)=O)nn(CCN5CCC(F)(F)CC5)c34)c(=O)c12 (relative stereo) [Example 698, N-[(1S)-1-[(3P)-3-{4-chloro-1-[2-(4,4-difluoropiperidin-1-yl)ethyl]-3-methanesulfonamido-1H-indazol-7-yl}-7-(4,4-difluorocyclohexyl)-5-[(1R**)-1-hydroxyethyl]-4-oxo-3H,4H-pyrido[2,3-d]pyrimidin-2-yl]-2-(3,5-difluorophenyl)ethyl]-2-[(2R*,4S*)-9-(difluoromethyl)-5,5-difluoro-7,8-diazatricyclo[4.3.0.0^2,4]nona-1(6),8-dien-7-yl]acetamide] | 0.027 | > 20
6 | COCCCn1nc(NS(C)(=O)=O)c2c(Cl)ccc(-n3c([C@H](Cc4cc(F)cc(F)c4)NC(=O)Cn4nc(C5CC5)c5c4C[C@@H]4C[C@H]54)nc4nc(C5CCC(F)(F)CC5)cc(CN5CC(F)(F)C5)c4c3=O)c21 (atropisomer, axis not shown; (P)) [Example 603, N-[(1S)-1-[(3P)-3-[4-chloro-3-methanesulfonamido-1-(3-methoxypropyl)-1H-indazol-7-yl]-5-[(3,3-difluoroazetidin-1-yl)methyl]-7-(4,4-difluorocyclohexyl)-4-oxo-3H,4H-pyrido[2,3-d]pyrimidin-2-yl]-2-(3,5-difluorophenyl)ethyl]-2-[(2S,4S)-9-cyclopropyl-7,8-diazatricyclo[4.3.0.0^2,^4]nona-1(6),8-dien-7-yl]acetamide] | 0.004 | > 20
7 | Cc1cc(C2CCC(F)(F)CC2)nc2nc([C@H](Cc3cc(F)cc(F)c3)NC(=O)Cn3nc(C4CC4)c4c3C[C@@H]3C[C@H]43)n(-c3ccc(Cl)c4c(NS(C)(=O)=O)nn(CCNC5COC5)c34)c(=O)c12 (atropisomer, axis not shown; (P)) [Example 279, N-[(1S)-1-[(3P)-3-(4-chloro-3-methanesulfonamido-1-{2-[(oxetan-3-yl)amino]ethyl}-1H-indazol-7-yl)-7-(4,4-difluorocyclohexyl)-5-methyl-4-oxo-3H,4H-pyrido[2,3-d]pyrimidin-2-yl]-2-(3,5-difluorophenyl)ethyl]-2-[(2S,4S)-9-cyclopropyl-7,8-diazatricyclo[4.3.0.0^2,^4]nona-1(6),8-dien-7-yl]acetamide] | 0.036 | > 50
8 | CS(=O)(=O)Nc1nn(CCN2C[C@H](F)C[C@H](F)C2)c2c(-n3c([C@H](Cc4cc(F)cc(F)c4)NC(=O)Cn4nc(C5CC5)c5c4C[C@@H]4C[C@H]54)nc4nc(C5CCC(F)(F)CC5)cc(C5CC5)c4c3=O)ccc(Cl)c12 (atropisomer, axis not shown; (P)) [Example 327, N-[(1S)-1-[(3P)-3-(4-chloro-1-{2-[(3R,5S)-3,5-difluoropiperidin-1-yl]ethyl}-3-methanesulfonamido-1H-indazol-7-yl)-5-cyclopropyl-7-(4,4-difluorocyclohexyl)-4-oxo-3H,4H-pyrido[2,3-d]pyrimidin-2-yl]-2-(3,5-difluorophenyl)ethyl]-2-[(2S,4S)-9-cyclopropyl-7,8-diazatricyclo[4.3.0.0^2,^4]nona-1(6),8-dien-7-yl]acetamide] | 0.008 | > 50
9 | CS(=O)(=O)Nc1nn(CCN2CCC(F)(F)C2)c2c(-n3c([C@H](Cc4cc(F)cc(F)c4)NC(=O)Cn4nc(C(F)F)c5c4C(F)(F)[C@@H]4C[C@H]54)nc4nc(C5CCC(F)(F)CC5)ccc4c3=O)ccc(Cl)c12 (atropisomer, axis not shown; (P)) [Example 158, N-[(1S)-1-[(3P)-3-{4-chloro-1-[2-(3,3-difluoropyrrolidin-1-yl)ethyl]-3-methanesulfonamido-1H-indazol-7-yl}-7-(4,4-difluorocyclohexyl)-4-oxo-3H,4H-pyrido[2,3-d]pyrimidin-2-yl]-2-(3,5-difluorophenyl)ethyl]-2-[(2S,4R)-9-(difluoromethyl)-5,5-difluoro-7,8-diazatricyclo[4.3.0.0^2,^4]nona-1(6),8-dien-7-yl]acetamide] | 0.011 | > 50
10 | Cc1cc(C2CCC(F)(F)CC2)nc2nc([C@H](Cc3cc(F)cc(F)c3)NC(=O)Cn3nc(C(F)F)c4c3C(F)(F)[C@@H]3C[C@H]43)n(-c3ccc(Cl)c4c(NS(C)(=O)=O)nn(CCN5CCCC5)c34)c(=O)c12 (atropisomer, axis not shown; (P)) [Example 266, N-[(1S)-1-[(3P)-3-{4-chloro-3-methanesulfonamido-1-[2-(pyrrolidin-1-yl)ethyl]-1H-indazol-7-yl}-7-(4,4-difluorocyclohexyl)-5-methyl-4-oxo-3H,4H-pyrido[2,3-d]pyrimidin-2-yl]-2-(3,5-difluorophenyl)ethyl]-2-[(2S,4R)-9-(difluoromethyl)-5,5-difluoro-7,8-diazatricyclo[4.3.0.0^2,^4]nona-1(6),8-dien-7-yl]acetamide] | 0.034 | > 50
11 | Cc1cc(C2CCC(F)(F)CC2)nc2nc([C@H](Cc3cc(F)cc(F)c3)NC(=O)Cn3nc(C(F)F)c4c3C(F)(F)[C@@H]3C[C@H]43)n(-c3ccc(Cl)c4c(NS(C)(=O)=O)nn(CCOC(C)C)c34)c(=O)c12 (atropisomer, axis not shown; (P)) [Example 59, N-[(1S)-1-[(3P)-3-{4-chloro-3-methanesulfonamido-1-[2-(propan-2-yloxy)ethyl]-1H-indazol-7-yl}-7-(4,4-difluorocyclohexyl)-5-methyl-4-oxo-3H,4H-pyrido[2,3-d]pyrimidin-2-yl]-2-(3,5-difluorophenyl)ethyl]-2-[(2S,4R)-9-(difluoromethyl)-5,5-difluoro-7,8-diazatricyclo[4.3.0.0^2,^4]nona-1(6),8-dien-7-yl]acetamide] | 0.011 | > 50
